This note sets out measurements from the supplement of paper PMC10307832.

What all share (experiment): relative viability (nuclei count vs DMSO), 5 days (fraction); higher = more cells survive
Compound in assay [1]: CC1=CC(=NN1)NC2=CC(=NC(=N2)/C=C/C3=CC=CC=C3)N4CCN(CC4)C + N=C(N)NC(=N)NCCc1ccccc1 [Phenformin] (partner 250 µM)
Put shortly:
(§1)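 Cells from lung cancer lines were seeded into 1536-well plates and, one day later, dosed by pin tool. Treatments were either a single drug or a fixed dose of an anchor drug with five library-drug doses (not always all listed) in √10 steps. After 5 days, nuclei were stained in a one-step fixation (final 0.05% Triton X-100, 1% formaldehyde, 1 ug/ml Hoechst) and counted on 4× images, and relative viability is the treated-to-vehicle nuclei ratio, as the median of duplicate plates.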

Compound in assay [2]: CC1=CC(=NN1)NC2=CC(=NC(=N2)/C=C/C3=CC=CC=C3)N4CCN(CC4)C + NC(=O)Nc1cc(-c2cccc(F)c2)sc1C(=O)N[C@H]1CCCNC1 [AZD7762] (partner 0.2 µM)
Put shortly: as §1

Compound in the assay “Obatoclax + Pemetrexed”: COC1=CC(c2cc3ccccc3[nH]2)=N/C1=C\c1[nH]c(C)cc1C [Obatoclax] + Nc1nc2[nH]cc(CCc3ccc(C(=O)N[C@@H](CCC(=O)O)C(=O)O)cc3)c2c(=O)[nH]1 [Pemetrexed] (partner 0.2 µM)
A digest of the protocol: as §1

Compound in assay [3]: CC1=CC(=NN1)NC2=CC(=NC(=N2)/C=C/C3=CC=CC=C3)N4CCN(CC4)C + O=C(CCCCCCC(=O)Nc1ccccc1)NO [Vorinostat] (partner 1 µM)
A digest of the protocol: as §1

Take NCI-H650: the relative viability worked out at 0.521 in assay [1] (first compound 0.253 µM); 0.483 in assay [1] (first compound 0.8 µM); 0.371 in assay [1] (first compound 2.53 µM); 0.181 in assay [1] (first compound 8 µM); 1.26 in assay [2] (first compound 0.08 µM); 1.02 in assay [2] (first compound 0.253 µM). Further, the relative viability was determined as 1.29 in assay [2] (first compound 0.8 µM); 0.736 in assay [2] (first compound 2.53 µM); 0.187 in assay [2] (first compound 8 µM); 1.01 in the assay with Obatoclax + Pemetrexed (first compound 0.01 µM); 0.86 with Obatoclax + Pemetrexed (first compound 0.03162 µM); 0.944 in the assay with Obatoclax + Pemetrexed (first compound 0.3162 µM). The relative viability with Obatoclax + Pemetrexed (first compound 1 µM) was found to be 0.443; in assay [3] (first compound 0.08 µM) it was 0.412; in assay [3] (first compound 0.253 µM), 0.717; in assay [3] (first compound 0.8 µM), 0.495; in assay [3] (first compound 2.53 µM), 0.409; in assay [3] (first compound 8 µM), 0.174.
